Assay results taken from ChEMBL document CHEMBL4699592, “Nature-Inspired (di)Azine-Bridged Bisindole Alkaloids with Potent Antibacterial In Vitro and In Vivo Efficacy against Methicillin-Resistant Staphylococcus aureus” (J Med Chem, 2020).
Values after ≈ are worked out from the molar mass of the structure shown. Active and inactive are the calls of the source. The calls are words filed in the database; no cut-off is given here.

How the values were obtained:
[1] = Selectivity index, ratio of IC50 for cytotoxicity against human THP-1 cells to MIC90 for antibacterial activity against […] Staphylococcus aureus ATCC 700699; format: toxicity, cell-based; details: read-out: Selectivity Index
[2] = tested on: MRC5; assay: Cytotoxicity against human MRC5 cells assessed as reduction in cell viability at >=12.5 uM measured after 48 hrs by resazurin dye based fluorescence assay; details: mrc5, 48 h
[3] = tested on: THP-1; assay: Cytotoxicity against human THP-1 cells assessed as reduction in cell viability at >=12.5 uM measured after 48 hrs by resazurin dye based fluorescence assay; details: thp-1, 48 h
[4] = tested on: Acinetobacter baumannii; assay: Antibacterial activity against Acinetobacter baumannii ATCC BAA-1605 at 0.78 to 100 uM after 24 hrs by broth microdilution method; format: functional, organism-based; details: dose microM 0.78-100, time 24.0 hrs
[5] = tested on: Mycobacterium tuberculosis; assay: Antibacterial activity against Mycobacterium tuberculosis H37Rv at 0.78 to 100 uM after 5 days by resazurin dye based fluorescence assay; format: functional, organism-based; details: dose microM 0.78-100, time 5.0 day
[6] = tested on: Staphylococcus aureus; assay: Antibacterial activity against […] Staphylococcus aureus ATCC 700699 after 24 hrs by broth microdilution method; format: functional
[7] = Solubility of compound in pH 7.7 PBS buffer; format: physicochemical
[8] = Selectivity index, ratio of IC50 for cytotoxicity against human MRC5 cells to MIC90 for antibacterial activity against […] Staphylococcus aureus ATCC 700699; format: toxicity, cell-based; details: read-out: Selectivity Index
[9] = tested on: Staphylococcus aureus; assay: Bactericidal activity against […] Staphylococcus aureus ATCC 700699 assessed as reduction in bacterial viability at 5 fold MIC incubated for 6 hrs by time kill assay relative to control; format: functional
[10] = tested on: Staphylococcus aureus; assay: Bactericidal activity against […] Staphylococcus aureus ATCC 700699 assessed as colony forming units at 5 fold MIC measured after 24 hrs by time kill assay; format: functional
[11] = tested on: Staphylococcus aureus; assay: Bactericidal activity against […] Staphylococcus aureus ATCC 700699 assessed as colony forming unit at 5 fold MIC incubated for 6 hrs followed by compound washout and subsequent compound addition by time kill assay; format: functional
[12] = Stability of compound in pH 7.7 DMSO:PBS solution at 0.19 uM measured after 6 hrs; format: physicochemical; details: buffer, pH 7.7, 6 h
[13] = tested on: Staphylococcus aureus; assay: Antibacterial activity against methicillin susceptible Staphylococcus aureus ATCC 25923 after 24 hrs by broth microdilution method; format: functional
[14] = tested on: Cell membrane; assay: Induction of cell membrane permeabilization in methicillin resistant Staphylococcus aureus ATCC 700699 measured at 5 mins interval for 2 hrs by propidium iodide staining based fluorescence assay; format: subcellular
[15] = tested on: Cell membrane; assay: Induction of cell membrane permeabilization in GFP-expressing Staphylococcus aureus ATCC 700699 assessed as increase in cellular ATP leakage at 5 fold MIC measured after 0.5 hrs by Bactiter-glo assay; format: subcellular
[16] = tested on: Pseudomonas aeruginosa; assay: Antibacterial activity against Pseudomonas aeruginosa ATCC 27853 measured after 24 hrs by broth microdilution method; format: functional
[17] = tested on: Acinetobacter baumannii; assay: Antibacterial activity against Acinetobacter baumannii ATCC BAA-1605 after 24 hrs by broth microdilution method; format: functional
[18] = tested on: Escherichia coli; assay: Antimicrobial activity against Escherichia coli ATCC BAA 2469 after 24 hrs by broth microdilution assay; format: functional
[19] = tested on: Klebsiella pneumoniae; assay: Antibacterial activity against Klebsiella pneumoniae ATCC 700603 after 24 hrs by broth microdilution method; format: functional
[20] = tested on: Enterococcus faecium; assay: Antibacterial activity against vancomycin-resistant Enterococcus faecium ATCC 35667 at 0.78 to 100 uM after 24 hrs by broth microdilution method; format: functional, organism-based; details: dose microM 0.78-100, time 24.0 hrs
[21] = tested on: Enterococcus faecium; assay: Antibacterial activity against vancomycin-resistant Enterococcus faecium ATCC 700221 at 0.78 to 100 uM after 24 hrs by broth microdilution method; format: functional, organism-based; details: dose microM 0.78-100, time 24.0 hrs
[22] = tested on: Enterococcus faecalis; assay: Antibacterial activity against Enterococcus faecalis ATCC 51299 at 0.78 to 100 uM after 24 hrs by broth microdilution method; format: functional, organism-based; details: dose microM 0.78-100, time 24.0 hrs
[23] = tested on: Enterococcus faecalis; assay: Antibacterial activity against Enterococcus faecalis ATCC 29212 at 0.78 to 100 uM after 24 hrs by broth microdilution method; format: functional, organism-based; details: dose microM 0.78-100, time 24.0 hrs
[24] = tested on: Staphylococcus aureus; assay: Antibacterial activity against methicillin susceptible Staphylococcus aureus ATCC 25923 at 0.78 to 100 uM after 24 hrs by broth microdilution method; format: functional, organism-based; details: dose microM 0.78-100, time 24.0 hrs
[25] = tested on: HEK293; assay: Cytotoxicity against HEK293 cells assessed as reduction in cell viability at >12.5 uM measured after 48 hrs by resazurin dye based fluorescence assay; details: human, hek293, 48 h
[26] = tested on: HepG2; assay: Cytotoxicity against human HepG2 cells assessed as reduction in cell viability at >12.5 uM measured after 48 hrs by resazurin dye based fluorescence assay; details: hepg2, 48 h
[27] = Cytotoxicity against human CLS-54 cells assessed as reduction in cell viability at >12.5 uM measured after 48 hrs by resazurin dye based fluorescence assay; details: cls-54, 48 h
[28] = tested on: Staphylococcus aureus; assay: Antibacterial activity against methicillin-resistant Staphylococcus aureus USA300 LAC at 0.15 to 25 uM incubated for 24 hrs under low glucose medium by resazurin dye based fluorescence assay; format: functional, organism-based; details: dose microM 0.15-25, time 24.0 hrs
[29] = tested on: Staphylococcus aureus; assay: Antibacterial activity against methicillin-resistant Staphylococcus aureus USA300 LAC at 0.15 to 25 uM incubated for 24 hrs under low pyruvate containing medium by resazurin dye based fluorescence assay; format: functional, organism-based; details: dose microM 0.15-25, time 24.0 hrs
[30] = tested on: Staphylococcus aureus; assay: Antibacterial activity against methicillin-resistant pyruvate kinase deficient Staphylococcus aureus USA300 LAC at 0.15 to 25 uM incubated for 24 hrs under low pyruvate containing medium by resazurin dye based fluorescence assay; format: functional, organism-based; details: dose microM 0.15-25, time 24.0 hrs
[31] = tested on: Staphylococcus aureus; assay: Inhibition of Staphylococcus aureus ATCC 700699 N-terminal His6-tagged pyruvate kinase expressed in Escherichia coli NiCo21(DE3) at 12.5 uM using phosphoenolpyruvate as substrate measured for 5 mins by LDH-coupled assay
[32] = molecular target: Pyruvate kinase PKM (Oryctolagus cuniculus) (UniProt P11974); assay: Inhibition of rabbit muscle pyruvate kinase up to 12.5 uM using phosphoenolpyruvate as substrate measured for 5 mins by LDH-coupled assay; details: dose microM <=12.5, time 5.0 min
[33] = tested on: Staphylococcus aureus; assay: Antibacterial activity against vancomycin-sensitive Staphylococcus aureus T144 infected in Balb/c mouse assessed as reduction in bacterial burden at 20 mg/kg applied topically measured after 12 days by colony counting method; format: functional, organism-based; details: time 12.0 day
[34] = tested on: Staphylococcus aureus; assay: Antibacterial activity against vancomycin-sensitive Staphylococcus aureus T144 infected in Balb/c mouse assessed as increase in wound healing at 20 mg/kg applied topically measured daily for 12 days by microscopic analysis; format: functional, organism-based; details: time 12.0 day
[35] = tested on: Staphylococcus aureus; assay: Antibacterial activity against vancomycin-sensitive Staphylococcus aureus T144 infected in Balb/c mouse peritonitis-sepsis model assessed as increase in survival at 20 mg/kg, ip measured for 48 hrs; format: functional, organism-based

Sequence of Pyruvate kinase PKM (Oryctolagus cuniculus) (P11974 whole entry): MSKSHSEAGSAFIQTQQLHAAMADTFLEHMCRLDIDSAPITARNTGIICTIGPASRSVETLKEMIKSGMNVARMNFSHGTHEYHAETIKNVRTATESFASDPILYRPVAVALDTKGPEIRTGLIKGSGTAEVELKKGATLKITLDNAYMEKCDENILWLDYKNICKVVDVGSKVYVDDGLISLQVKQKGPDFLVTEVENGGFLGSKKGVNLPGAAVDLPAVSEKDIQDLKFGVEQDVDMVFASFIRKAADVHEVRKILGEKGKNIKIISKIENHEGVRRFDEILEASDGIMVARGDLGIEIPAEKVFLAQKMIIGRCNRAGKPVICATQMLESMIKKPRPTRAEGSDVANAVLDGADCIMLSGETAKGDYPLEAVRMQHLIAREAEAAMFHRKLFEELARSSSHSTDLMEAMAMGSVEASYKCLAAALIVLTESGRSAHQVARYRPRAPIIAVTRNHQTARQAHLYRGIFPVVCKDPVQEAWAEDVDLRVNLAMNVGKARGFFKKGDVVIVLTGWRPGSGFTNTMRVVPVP

With `Clc1ccc2[nH]cc(-c3cnc(-c4c[nH]c5ccc(Cl)cc45)cn3)c2c1` the selectivity ratio [1] was 32, the Activity [2] was “Toxic” and the Activity [3] was “Toxic”. For the same compound, the Activity [4] was “inactive”, the Activity [5] was “inactive” and the MIC90 [6] was 0.39 µM (≈ 0.148 µg/mL). For the same compound, the solubility [7] was “Insoluble”, the selectivity ratio [8] was 32 and the “fold change (FC)” value [9] was 100. The Activity [10] was 100 CFU/ml, the Activity [11] was 100 CFU/ml and the Stabilty [12] was “Stable”.
For `Brc1cc2[nH]cc(-c3cnc(-c4c[nH]c5cc(Br)c(Br)cc45)cn3)c2cc1Br`, the Activity [4] was “inactive”, the Activity [5] was “inactive” and the MIC90 [6] was 1.56 µM (≈ 0.976 µg/mL). The MIC [13] was 1.56 µM (≈ 0.976 µg/mL).
With `Fc1ccc2[nH]cc(-c3cnc(-c4c[nH]c5ccc(F)cc45)cn3)c2c1` the Activity [4] was “inactive”, the Activity [5] was “inactive” and the MIC90 [6] was > 100 µM.
In the case of `COc1c(N2C[C@@H]3CCCN[C@@H]3C2)c(F)cc2c(=O)c(C(=O)O)cn(C3CC3)c12`, the Activity [14] is reported as “inactive” and the Activity [15] is reported as “inactive”.
In the case of `c1ccc2c(-c3cnc(-c4c[nH]c5ccccc45)nc3)c[nH]c2c1`, the Activity [4] is reported as “inactive”, the Activity [5] is reported as “inactive” and the MIC90 [6] is reported as 12.5 µM (≈ 3.88 µg/mL).
In the case of COLISTIN, the MIC [16] is reported as 0.39 µM, the MIC [17] is reported as 0.78 µM and the MIC [18] is reported as 0.78 µM. The MIC [19] was 1.56 µM.
In the case of `c1cc(-c2c[nH]c3ccccc23)nc(-c2c[nH]c3ccccc23)c1`, the Activity [4] is reported as “inactive”, the Activity [5] is reported as “inactive” and the MIC90 [6] is reported as > 100 µM.
For `CC(=O)NC[C@H]1CN(c2ccc(N3CCOCC3)c(F)c2)C(=O)O1`, the Activity [14] was “inactive” and the Activity [15] was “inactive”.
For `Clc1ccc2[nH]cc(-c3ccnc(-c4c[nH]c5ccc(Cl)cc45)n3)c2c1`, the selectivity ratio [1] was 32, the Activity [2] was “Toxic” and the Activity [3] was “Toxic”. The Activity [20] was “Active”, the Activity [21] was “Active” and the Activity [22] was “Active”. For the same compound, the Activity [23] was “Active”, the Activity [4] was “Active” and the Activity [5] was “Active”. For the same compound, the Activity [24] was “Active”, the MIC90 [6] was 3.13 µM (≈ 1.19 µg/mL) and the selectivity ratio [8] was 32. The Activity [25] was “Toxic”, the Activity [26] was “Toxic” and the Activity [27] was “Toxic”. For the same compound, the “fold change (FC)” value [9] was 10000, the Activity [10] was <10 CFU/ml and the Activity [28] was “Active”. For the same compound, the Activity [29] was “Active”, the Activity [30] was “Active” and the inhibition [31] was “inactive”. For the same compound, the inhibition [32] was “inactive”.
With `Brc1ccc2[nH]cc(-c3cnc(-c4c[nH]c5ccc(Br)cc45)cn3)c2c1` the selectivity ratio [1] was 8, the Activity [2] was “Toxic” and the Activity [3] was “Toxic”. The Activity [4] was “inactive”, the Activity [5] was “inactive” and the MIC90 [6] was 1.56 µM (≈ 0.73 µg/mL). For the same compound, the solubility [7] was “Insoluble”, the selectivity ratio [8] was 8 and the “fold change (FC)” value [9] was 10000. For the same compound, the Activity [28] was “Active”, the Activity [29] was “Active” and the Activity [30] was “Active”.
With `c1cc(-c2c[nH]c3ncccc23)nc(-c2c[nH]c3ncccc23)c1` the Activity [4] was “inactive”, the Activity [5] was “inactive” and the MIC90 [6] was > 100 µM.
For `CN[C@H](CC(C)C)C(=O)N[C@H]1C(=O)N[C@@H](CC(N)=O)C(=O)N[C@H]2C(=O)N[C@H]3C(=O)N[C@H](C(=O)N[C@H](C(=O)O)c4cc(O)cc(O)c4-c4cc3ccc4O)[C@H](O)c3ccc(c(Cl)c3)Oc3cc2cc(c3O[C@@H]2O[C@H](CO)[C@@H](O)[C@H](O)[C@H]2O[C@H]2C[C@](C)(N)[C@H](O)[C@H](C)O2)Oc2ccc(cc2Cl)[C@H]1O`, the Activity [33] was “Active”, the Activity [34] was “Active” and the Activity [35] was “Active”.
